{"source": "ChEMBL document CHEMBL1201862", "about": "“PubChem BioAssay data set” (2004)", "assay_in_all_cases": "growth of human tumour cells (NCI), 48 h", "key": {"OVCAR-5": {"test_system": "OVCAR-5"}, "SF-268": {"test_system": "SF-268"}, "SK-OV-3": {"test_system": "SK-OV-3"}, "IGROV-1": {"test_system": "IGROV-1"}, "786-0": {"test_system": "786-0"}, "RXF 393": {"test_system": "RXF 393"}, "TK-10": {"test_system": "TK-10"}, "HCC 2998": {"test_system": "HCC 2998"}, "SK-MEL-2": {"test_system": "SK-MEL-2"}, "HCT-116": {"test_system": "HCT-116"}, "MDA-N": {"test_system": "MDA-N"}, "SN12C": {"test_system": "SN12C"}, "MDA-MB-435": {"test_system": "MDA-MB-435"}, "SF-539": {"test_system": "SF-539"}, "HOP-92": {"test_system": "HOP-92"}, "HCT-15": {"test_system": "HCT-15"}, "SK-MEL-5": {"test_system": "SK-MEL-5"}, "DU-145": {"test_system": "DU-145"}, "HT-29": {"test_system": "HT-29"}, "M14": {"test_system": "M14"}, "NCI-H23": {"test_system": "NCI-H23"}, "NCI/ADR-RES": {"test_system": "NCI/ADR-RES"}, "A498": {"test_system": "A498"}, "MOLT-4": {"test_system": "MOLT-4"}, "NCI-H522": {"test_system": "NCI-H522"}, "Malme-3M": {"test_system": "Malme-3M"}, "SNB-19": {"test_system": "SNB-19"}, "A549": {"test_system": "A549"}, "BT-549": {"test_system": "BT-549"}, "SW-620": {"test_system": "SW-620"}, "MDA-MB-231": {"test_system": "MDA-MB-231"}, "PC-3": {"test_system": "PC-3"}, "RPMI-8226": {"test_system": "RPMI-8226"}, "COLO 205": {"test_system": "COLO 205"}, "NCI-H460": {"test_system": "NCI-H460"}, "ACHN": {"test_system": "ACHN"}, "OVCAR-3": {"test_system": "OVCAR-3"}, "SF-295": {"test_system": "SF-295"}, "LOX IMVI": {"test_system": "LOX IMVI"}, "UACC-257": {"test_system": "UACC-257"}, "U-251": {"test_system": "U-251"}, "CAKI-1": {"test_system": "CAKI-1"}, "SR": {"test_system": "SR"}, "T47D": {"test_system": "T47D"}, "CCRF-CEM": {"test_system": "CCRF-CEM"}, "UO-31": {"test_system": "UO-31"}, "OVCAR-4": {"test_system": "OVCAR-4"}, "MCF7": {"test_system": "MCF7"}, "HOP-62": {"test_system": "HOP-62"}, "UACC-62": {"test_system": "UACC-62"}, "EKVX": {"test_system": "EKVX"}, "NCI-H226": {"test_system": "NCI-H226"}, "KM12": {"test_system": "KM12"}, "SK-MEL-28": {"test_system": "SK-MEL-28"}, "K562": {"test_system": "K562"}, "OVCAR-8": {"test_system": "OVCAR-8"}}, "note": "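Where inhibition never reached the appropriate level, the endpoint shown equals the highest concentration tested. Otherwise, values were interpolated linearly from a five-concentration, 48-hour dose response in 96-well plates. GI50 = concentration required for 50% inhibition of growth.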 Calls of active or inactive are those of the source. Cut-off read from the data, not from the text of the source: active = GI50 up to about 1.1 µM and inactive = higher.", "data": [{"compound": "NCCCCc1cc(O)c2c(c1O)C(=O)c1ccccc1C2=O", "values": [{"measurement": "GI50", "setting": "OVCAR-5", "result": "13.3 µM (inactive)"}, {"measurement": "GI50", "setting": "SF-268", "result": "13.8 µM (inactive)"}, {"measurement": "GI50", "setting": "SK-OV-3", "result": "14.9 µM (inactive)"}, {"measurement": "GI50", "setting": "IGROV-1", "result": "8 µM (inactive)"}, {"measurement": "GI50", "setting": "786-0", "result": "6 µM (inactive)"}, {"measurement": "GI50", "setting": "RXF 393", "result": "12.9 µM (inactive)"}, {"measurement": "GI50", "setting": "TK-10", "result": "15.4 µM (inactive)"}, {"measurement": "GI50", "setting": "HCC 2998", "result": "12.6 µM (inactive)"}, {"measurement": "GI50", "setting": "SK-MEL-2", "result": "17.4 µM (inactive)"}, {"measurement": "GI50", "setting": "HCT-116", "result": "4.75 µM (inactive)"}, {"measurement": "GI50", "setting": "MDA-N", "result": "14.9 µM (inactive)"}, {"measurement": "GI50", "setting": "SN12C", "result": "10.6 µM (inactive)"}, {"measurement": "GI50", "setting": "MDA-MB-435", "result": "22.6 µM (inactive)"}, {"measurement": "GI50", "setting": "SF-539", "result": "6.75 µM (inactive)"}, {"measurement": "GI50", "setting": "HOP-92", "result": "14.4 µM (inactive)"}, {"measurement": "GI50", "setting": "HCT-15", "result": 9.25, "unit": "µM"}, {"measurement": "GI50", "setting": "SK-MEL-5", "result": "12.4 µM (inactive)"}, {"measurement": "GI50", "setting": "DU-145", "result": "12 µM (inactive)"}, {"measurement": "GI50", "setting": "HT-29", "result": "4.19 µM (inactive)"}, {"measurement": "GI50", "setting": "M14", "result": "16.5 µM (inactive)"}, {"measurement": "GI50", "setting": "NCI-H23", "result": "14.3 µM (inactive)"}, {"measurement": "GI50", "setting": "NCI/ADR-RES", "result": "12.6 µM (inactive)"}, {"measurement": "GI50", "setting": "A498", "result": "18.2 µM (inactive)"}, {"measurement": "GI50", "setting": "MOLT-4", "result": "2.81 µM (inactive)"}, {"measurement": "GI50", "setting": "NCI-H522", "result": "10 µM (inactive)"}, {"measurement": "GI50", "setting": "Malme-3M", "result": "14.7 µM (inactive)"}, {"measurement": "GI50", "setting": "SNB-19", "result": "14.2 µM (inactive)"}, {"measurement": "GI50", "setting": "A549", "result": "5.05 µM (inactive)"}, {"measurement": "GI50", "setting": "BT-549", "result": "22.2 µM (inactive)"}, {"measurement": "GI50", "setting": "SW-620", "result": "6.53 µM (inactive)"}, {"measurement": "GI50", "setting": "MDA-MB-231", "result": "9.1 µM (inactive)"}, {"measurement": "GI50", "setting": "PC-3", "result": "10.4 µM (inactive)"}, {"measurement": "GI50", "setting": "RPMI-8226", "result": "7.13 µM (inactive)"}, {"measurement": "GI50", "setting": "COLO 205", "result": "3.94 µM (inactive)"}, {"measurement": "GI50", "setting": "NCI-H460", "result": "10.5 µM (inactive)"}, {"measurement": "GI50", "setting": "ACHN", "result": "11.2 µM (inactive)"}, {"measurement": "GI50", "setting": "OVCAR-3", "result": "6.75 µM (inactive)"}, {"measurement": "GI50", "setting": "SF-295", "result": "14.1 µM (inactive)"}, {"measurement": "GI50", "setting": "LOX IMVI", "result": "7.59 µM (inactive)"}, {"measurement": "GI50", "setting": "UACC-257", "result": "17.5 µM (inactive)"}, {"measurement": "GI50", "setting": "U-251", "result": "9.75 µM (inactive)"}, {"measurement": "GI50", "setting": "CAKI-1", "result": "12.6 µM (inactive)"}, {"measurement": "GI50", "setting": "SR", "result": "3.18 µM (inactive)"}, {"measurement": "GI50", "setting": "T47D", "result": "18.1 µM (inactive)"}, {"measurement": "GI50", "setting": "CCRF-CEM", "result": "3.77 µM (inactive)"}, {"measurement": "GI50", "setting": "UO-31", "result": "6.73 µM (inactive)"}, {"measurement": "GI50", "setting": "OVCAR-4", "result": "15.4 µM (inactive)"}, {"measurement": "GI50", "setting": "MCF7", "result": "5.41 µM (inactive)"}, {"measurement": "GI50", "setting": "HOP-62", "result": "8.39 µM (inactive)"}, {"measurement": "GI50", "setting": "UACC-62", "result": "17.5 µM (inactive)"}, {"measurement": "GI50", "setting": "EKVX", "result": "17.1 µM (inactive)"}, {"measurement": "GI50", "setting": "NCI-H226", "result": "4.56 µM (inactive)"}, {"measurement": "GI50", "setting": "KM12", "result": "5.41 µM (inactive)"}, {"measurement": "GI50", "setting": "SK-MEL-28", "result": "17.5 µM (inactive)"}, {"measurement": "GI50", "setting": "K562", "result": "3.1 µM (inactive)"}, {"measurement": "GI50", "setting": "OVCAR-8", "result": "5.09 µM (inactive)"}]}]}
